Reference: patent US9695155B2, “Herbicidal substituted pyrimidinyloxy benzene compounds” (E. I. DU PONT DE NEMOURS AND COMPANY, priority 2013, dated 2017)

Assays:
Assay in all cases: Test E preemergence
soybean = assay type: in vivo, Glycine max; details: for Soybean plant response rating: scale 0 to 100 (0 no effect, 100 complete control); for Plant response rating, Soybean: scale 0 to 100, 0 no effect, 100 complete control
In short: (§1)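 Test chemicals formulated in a non-phytotoxic solvent mixture containing a surfactant were applied preemergence to seeds in silt loam soil or postemergence to plants at the 1- to 4-leaf stage in potting mix. After 14 to 21 days in a greenhouse, injury was visually rated against controls on a 0-100 scale (0 = no effect, 100 = complete control).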

surinam grass = assay type: in vivo, Brachiaria decumbens; details: for Surinam Grass plant response rating: scale 0 to 100 (0 no effect, 100 complete control); for Plant response rating, Surinam Grass: scale 0 to 100, 0 no effect, 100 complete control
In short: as §1

large (Lg) crabgrass = assay type: in vivo, Digitaria sanguinalis; details: for Crabgrass, Large plant response rating: scale 0 to 100 (0 no effect, 100 complete control); for Plant response rating, Crabgrass, Large: scale 0 to 100, 0 no effect, 100 complete control
In short: as §1

fall panicum = assay type: in vivo, Panicum dichotomiflorum; details: for Panicum, Fall plant response rating: scale 0 to 100 (0 no effect, 100 complete control); for Plant response rating, Panicum, Fall: scale 0 to 100, 0 no effect, 100 complete control
In short: as §1

giant foxtail = assay type: in vivo, Setaria faberii; details: for Foxtail, Giant plant response rating: scale 0 to 100 (0 no effect, 100 complete control); for Plant response rating, Foxtail, Giant: scale 0 to 100, 0 no effect, 100 complete control
In short: as §1

goosegrass = assay type: in vivo, Eleusine indica; details: for Goosegrass plant response rating: scale 0 to 100 (0 no effect, 100 complete control); for Plant response rating, Goosegrass: scale 0 to 100, 0 no effect, 100 complete control
In short: as §1

ragweed = assay type: in vivo, Ambrosia elatior; details: for Ragweed plant response rating: scale 0 to 100 (0 no effect, 100 complete control); for Plant response rating, Ragweed: scale 0 to 100, 0 no effect, 100 complete control
In short: as §1

barnyardgrass = assay type: in vivo, Echinochloa crus-galli; details: for Barnyardgrass plant response rating: scale 0 to 100 (0 no effect, 100 complete control); for Plant response rating, Barnyardgrass: scale 0 to 100, 0 no effect, 100 complete control
In short: as §1

sandbur = assay type: in vivo, Cenchrus echinatus; details: for Sandbur plant response rating: scale 0 to 100 (0 no effect, 100 complete control); for Plant response rating, Sandbur: scale 0 to 100, 0 no effect, 100 complete control
In short: as §1

Italian ryegrass = assay type: in vivo, Lolium multiflorum; details: for Ryegrass, Italian plant response rating: scale 0 to 100 (0 no effect, 100 complete control); for Plant response rating, Ryegrass, Italian: scale 0 to 100, 0 no effect, 100 complete control
In short: as §1

morningglory = assay type: in vivo, Ipomoea coccinea; details: for Morningglory plant response rating: scale 0 to 100 (0 no effect, 100 complete control); for Plant response rating, Morningglory: scale 0 to 100, 0 no effect, 100 complete control
In short: as §1

nightshade = assay type: in vivo, Solanum ptycanthum; details: for Nightshade plant response rating: scale 0 to 100 (0 no effect, 100 complete control); for Plant response rating, Nightshade: scale 0 to 100, 0 no effect, 100 complete control
In short: as §1

kochia = assay type: in vivo, Kochia scoparia; details: for Kochia plant response rating: scale 0 to 100 (0 no effect, 100 complete control); for Plant response rating, Kochia: scale 0 to 100, 0 no effect, 100 complete control
In short: as §1

hairy beggarticks = assay type: in vivo, Bidens pilosa; details: for Beggarticks plant response rating: scale 0 to 100 (0 no effect, 100 complete control); for Plant response rating, Beggarticks: scale 0 to 100, 0 no effect, 100 complete control
In short: as §1

## N#Cc1cccc(Oc2ncc(Cl)cn2)c1-n1cc(C(F)(F)F)cn1 [Compound 58, 3-[(5-chloro-2-pyrimidinyl)oxy]-2-[4-(trifluoromethyl)-1H-pyrazol-1-yl]benzonitrile]
soybean; 16 g ai/ha
  Soybean plant response rating: 0
soybean; 31 g ai/ha
  Soybean plant response rating: 0
soybean; 62 g ai/ha
  Soybean plant response rating: 60
soybean; 125 g ai/ha
  Plant response rating, Soybean: 75
soybean; 250 g ai/ha
  Plant response rating, Soybean: 95
Surinam grass; 16 g ai/ha
  Surinam Grass plant response rating: 0
Surinam grass; 31 g ai/ha
  Surinam Grass plant response rating: 0
Surinam grass; 62 g ai/ha
  Surinam Grass plant response rating: 25
Surinam grass; 125 g ai/ha
  Plant response rating, Surinam Grass: 65
Surinam grass; 250 g ai/ha
  Plant response rating, Surinam Grass: 90
Large (Lg) crabgrass; 16 g ai/ha
  Crabgrass, Large plant response rating: 75
Large (Lg) crabgrass; 31 g ai/ha
  Crabgrass, Large plant response rating: 100
Large (Lg) crabgrass; 62 g ai/ha
  Crabgrass, Large plant response rating: 100
Large (Lg) crabgrass; 125 g ai/ha
  Plant response rating, Crabgrass, Large: 100
Large (Lg) crabgrass; 250 g ai/ha
  Plant response rating, Crabgrass, Large: 100
Fall panicum; 16 g ai/ha
  Panicum, Fall plant response rating: 95
Fall panicum; 31 g ai/ha
  Panicum, Fall plant response rating: 98
Fall panicum; 62 g ai/ha
  Panicum, Fall plant response rating: 100
Fall panicum; 125 g ai/ha
  Plant response rating, Panicum, Fall: 100
Fall panicum; 250 g ai/ha
  Plant response rating, Panicum, Fall: 100
Giant foxtail; 16 g ai/ha
  Foxtail, Giant plant response rating: 75
Giant foxtail; 31 g ai/ha
  Foxtail, Giant plant response rating: 100
Giant foxtail; 62 g ai/ha
  Foxtail, Giant plant response rating: 100
Giant foxtail; 125 g ai/ha
  Plant response rating, Foxtail, Giant: 100
Giant foxtail; 250 g ai/ha
  Plant response rating, Foxtail, Giant: 100
goosegrass; 16 g ai/ha
  Goosegrass plant response rating: 10
goosegrass; 31 g ai/ha
  Goosegrass plant response rating: 70
goosegrass; 62 g ai/ha
  Goosegrass plant response rating: 95
goosegrass; 125 g ai/ha
  Plant response rating, Goosegrass: 100
goosegrass; 250 g ai/ha
  Plant response rating, Goosegrass: 100
ragweed; 16 g ai/ha
  Ragweed plant response rating: 0
ragweed; 31 g ai/ha
  Ragweed plant response rating: 0
ragweed; 62 g ai/ha
  Ragweed plant response rating: 5
ragweed; 125 g ai/ha
  Plant response rating, Ragweed: 50
ragweed; 250 g ai/ha
  Plant response rating, Ragweed: 85
barnyardgrass; 16 g ai/ha, preemergence
  Barnyardgrass plant response rating: 20
barnyardgrass; 31 g ai/ha, preemergence
  Barnyardgrass plant response rating: 40
barnyardgrass; Preemergence, 62 g ai/ha
  Plant response rating, Barnyardgrass: 90
barnyardgrass; preemergence, 125 g ai/ha
  Plant response rating, Barnyardgrass: 95
barnyardgrass; preemergence, 250 g ai/ha
  Plant response rating, Barnyardgrass: 98
sandbur; 16 g ai/ha
  Sandbur plant response rating: 0
sandbur; 31 g ai/ha
  Sandbur plant response rating: 20
sandbur; 62 g ai/ha
  Sandbur plant response rating: 75
sandbur; 125 g ai/ha
  Plant response rating, Sandbur: 90
sandbur; 250 g ai/ha
  Plant response rating, Sandbur: 95
Italian ryegrass; 16 g ai/ha
  Ryegrass, Italian plant response rating: 30
Italian ryegrass; 31 g ai/ha
  Ryegrass, Italian plant response rating: 35
Italian ryegrass; 62 g ai/ha
  Ryegrass, Italian plant response rating: 75
Italian ryegrass; 125 g ai/ha
  Plant response rating, Ryegrass, Italian: 98
Italian ryegrass; 250 g ai/ha
  Plant response rating, Ryegrass, Italian: 98
morningglory; 31 g ai/ha
  Morningglory plant response rating: 50
morningglory; 62 g ai/ha
  Morningglory plant response rating: 100
morningglory; 125 g ai/ha
  Plant response rating, Morningglory: 100
morningglory; 250 g ai/ha
  Plant response rating, Morningglory: 100
nightshade; 16 g ai/ha
  Nightshade plant response rating: 90
nightshade; 31 g ai/ha
  Nightshade plant response rating: 98
nightshade; 62 g ai/ha
  Nightshade plant response rating: 100
nightshade; 125 g ai/ha
  Plant response rating, Nightshade: 100
nightshade; 250 g ai/ha
  Plant response rating, Nightshade: 100
kochia; 16 g ai/ha
  Kochia plant response rating: 35
kochia; 31 g ai/ha
  Kochia plant response rating: 100
kochia; 62 g ai/ha
  Kochia plant response rating: 100
kochia; 125 g ai/ha
  Plant response rating, Kochia: 100
kochia; 250 g ai/ha
  Plant response rating, Kochia: 100
Hairy beggarticks; 16 g ai/ha, preemergence
  Beggarticks plant response rating: 0
Hairy beggarticks; 31 g ai/ha, preemergence
  Beggarticks plant response rating: 0
Hairy beggarticks; Preemergence, 62 g ai/ha
  Plant response rating, Beggarticks: 0
Hairy beggarticks; preemergence, 125 g ai/ha
  Plant response rating, Beggarticks: 15
Hairy beggarticks; preemergence, 250 g ai/ha
  Plant response rating, Beggarticks: 100
